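A five-concentration, 48-hour dose response in 96-well plates underlies each endpoint, interpolated linearly between surrounding concentrations. GI50: concentration for 50% inhibition of growth.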 Activity calls are given as the source filed them. Cut-off read from the data, not from the text of the source: active = GI50 up to about 1.1 µM and inactive = higher.
What was measured:
Assay in all cases: growth of human tumour cells (NCI), 48 h
MOLT-4 = tested on: MOLT-4
DU-145 = tested on: DU-145
UACC-257 = tested on: UACC-257
NCI/ADR-RES = tested on: NCI/ADR-RES
SF-539 = tested on: SF-539
U-251 = tested on: U-251
HOP-62 = tested on: HOP-62
KM12 = tested on: KM12
NCI-H522 = tested on: NCI-H522
HCT-15 = tested on: HCT-15
SK-MEL-2 = tested on: SK-MEL-2
NCI-H226 = tested on: NCI-H226
SW-620 = tested on: SW-620
T47D = tested on: T47D
786-0 = tested on: 786-0
HCT-116 = tested on: HCT-116
RPMI-8226 = tested on: RPMI-8226
SK-MEL-28 = tested on: SK-MEL-28
A498 = tested on: A498
CAKI-1 = tested on: CAKI-1

| SMILES | GI50 (MOLT-4) | GI50 (DU-145) | GI50 (UACC-257) | GI50 (NCI/ADR-RES) | GI50 (SF-539) | GI50 (U-251) | GI50 (HOP-62) | GI50 (KM12) | GI50 (NCI-H522) | GI50 (HCT-15) [µM] | GI50 (SK-MEL-2) | GI50 (NCI-H226) | GI50 (SW-620) | GI50 (T47D) | GI50 (786-0) | GI50 (HCT-116) | GI50 (RPMI-8226) | GI50 (SK-MEL-28) | GI50 (A498) | GI50 (CAKI-1) |
| --- | --- | --- | --- | --- | --- | --- | --- | --- | --- | --- | --- | --- | --- | --- | --- | --- | --- | --- | --- | --- |
| Cc1ccc(/N=C/C=C(\Nc2ccc(C)cc2)c2ccc3ccccc3c2)cc1 | 0.237 µM (active) | 1.15 µM (inactive) | 0.501 µM (active) | 0.445 µM (active) | 1.21 µM (inactive) | 0.738 µM (active) | 0.912 µM (active) | 0.299 µM (active) | 2.74 µM (inactive) | 0.45 | 0.938 µM (active) | 1.4 µM (inactive) | 0.445 µM (active) | 1.41 µM (inactive) | 0.757 µM (active) | 0.434 µM (active) | 0.536 µM (active) | 0.488 µM (active) | 10.8 µM (inactive) | 0.45 µM (active) |
| COc1cc2oc(=O)cc(C)c2cc1O | > 100 µM (inactive) | > 100 µM (inactive) | > 100 µM (inactive) | > 100 µM (inactive) | > 100 µM (inactive) | > 100 µM (inactive) | > 100 µM (inactive) | > 100 µM (inactive) | > 100 µM (inactive) | > 100 | > 100 µM (inactive) | > 100 µM (inactive) | > 100 µM (inactive) | 41 µM (inactive) | > 100 µM (inactive) | > 100 µM (inactive) | > 100 µM (inactive) | > 100 µM (inactive) | > 100 µM (inactive) | > 100 µM (inactive) |
| N#Cc1c(-c2ccccc2)cc(Nc2ccc(F)cc2)n2c1nc1ccccc12 | 7.03 µM (inactive) | 2.94 µM (inactive) | 2.54 µM (inactive) | 2.26 µM (inactive) | 3.26 µM (inactive) | 2.06 µM (inactive) | 2.83 µM (inactive) | 3.52 µM (inactive) | 1.95 µM (inactive) | 3.26 | 1.43 µM (inactive) | 2.81 µM (inactive) | 4.08 µM (inactive) | 1.88 µM (inactive) | 2.78 µM (inactive) | 1.83 µM (inactive) | 3.56 µM (inactive) | 8.32 µM (inactive) | 2.74 µM (inactive) | 3.2 µM (inactive) |
| O=C1/C(=C/c2ccccc2)N=C(c2ccccc2)N1C1Nc2cc3c(cc2S1)NC(N1C(=O)/C(=C/c2ccccc2)N=C1c1ccccc1)S3 (stereo not given) | 4.13 µM (inactive) | 46.6 µM (inactive) | 3.78 µM (inactive) | 44.6 µM (inactive) | > 100 µM (inactive) | 4.72 µM (inactive) | 16.9 µM (inactive) | 6.87 µM (inactive) | 0.0258 µM (active) | 24.2 | 23.6 µM (inactive) | 44.5 µM (inactive) | 3.8 µM (inactive) | 30.4 µM (inactive) | 53.6 µM (inactive) | 32.5 µM (inactive) | 5.4 µM (inactive) | 6.64 µM (inactive) | 16.9 µM (inactive) | > 100 µM (inactive) |
| CN/C(=N\N=C1/C(=O)Nc2ccccc21)SCC(=O)c1ccc(Br)cc1 | 2.86 µM (inactive) | 6.82 µM (inactive) | 7.66 µM (inactive) | 6.9 µM (inactive) | 6.38 µM (inactive) | 5.21 µM (inactive) | 5.19 µM (inactive) | 7.53 µM (inactive) | 15.5 µM (inactive) | 17.2 | 50 µM (inactive) | 25.4 µM (inactive) | 2.42 µM (inactive) | 9.48 µM (inactive) | 5.61 µM (inactive) | 4.53 µM (inactive) | 5.58 µM (inactive) | 15 µM (inactive) | 17.4 µM (inactive) | 28.8 µM (inactive) |
| CC1(C)OC1COc1c2occc2cc2ccc(=O)oc12 (stereo not given) | 79.3 µM (inactive) | > 100 µM (inactive) | > 100 µM (inactive) | > 100 µM (inactive) | > 100 µM (inactive) | > 100 µM (inactive) | > 100 µM (inactive) | > 100 µM (inactive) | > 100 µM (inactive) | > 100 | > 100 µM (inactive) | > 100 µM (inactive) | > 100 µM (inactive) | 79.1 µM (inactive) | > 100 µM (inactive) | > 100 µM (inactive) | 39.2 µM (inactive) | > 100 µM (inactive) | > 100 µM (inactive) | > 100 µM (inactive) |
| COc1ccc(-c2c3c(cc4cc5c(cc24)OCO5)C(=O)OC3)cc1OC | 3.62 µM (inactive) | 2.7 µM (inactive) | 2.07 µM (inactive) | 0.132 µM (active) | 3.5 µM (inactive) | 4.67 µM (inactive) | 0.313 µM (active) | 1.77 µM (inactive) | 0.392 µM (active) | 0.635 | 1.83 µM (inactive) | 0.34 µM (active) | 2.19 µM (inactive) | 0.386 µM (active) | 2.12 µM (inactive) | 0.466 µM (active) | 0.0447 µM (active) | 1.37 µM (inactive) | 20.4 µM (inactive) | 0.571 µM (active) |

Source: ChEMBL document CHEMBL1201862, “PubChem BioAssay data set” (2004)
